Laboratory results as given in US12486298B2, “Fucosyltransferase specific inhibition using fucose mimetics” (THE FLORIDA INTERNATIONAL UNIVERSITY BOARD OF TRUSTEES, priority 2020, dated 2025).
Entries after “also recorded” stand apart in the source; their conditions may differ.

Legend:
Format in all cases: cell-based
[1] = molecular target: T1, fucosyltransferase VI (FTVI) (Homo sapiens, UniProt P51993); test: FTVI exofucosylation of mesenchymal stem cells (MSC), sLe^x and Le^x by flow cytometry; conditions: MSCs; 1.0 mM GDP-Fuc with 1.0 mM or 2.0 mM mimetic 1
T1 construct: purchased R&D systems
T1 sequence (P51993 35-359 limits assumed): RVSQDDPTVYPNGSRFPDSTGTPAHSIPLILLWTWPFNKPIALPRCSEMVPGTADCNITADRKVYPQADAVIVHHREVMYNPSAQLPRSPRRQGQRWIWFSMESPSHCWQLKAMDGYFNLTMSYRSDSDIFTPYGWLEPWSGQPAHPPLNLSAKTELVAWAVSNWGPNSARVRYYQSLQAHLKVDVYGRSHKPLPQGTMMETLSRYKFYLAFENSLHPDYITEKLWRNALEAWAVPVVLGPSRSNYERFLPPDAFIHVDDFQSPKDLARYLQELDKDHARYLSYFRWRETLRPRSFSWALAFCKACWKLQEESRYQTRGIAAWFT
Procedure: (§1) A Canto II (BD Biosciences) flow cytometer was utilized for flow cytometry and the data acquired was analyzed using FlowJo Software (Treestar). Cells were stained using antibodies specific to sLe^X (Alexa-Fluor 488 Mouse Anti-Human CD15s (BD Biosciences)), or Le^X (APC anti-human CD15 (SSEA-1) Antibody (BioLegend)).
(§2) Cells of the RPMI-8402 cell line and MSC cell line were treated with either 0.3 ug of fucosyltransferase VI (FTVI), 2.7 ug of fucosyltransferase VII (FTVII), 1.0 ug fucosyltransferase IX (FTIX) or buffer-only at 37° C. for 60 minutes. All reactions contained at 1×10^6 cells/30 ul in HBSS with 10 mM Hepes, 0.1% Human Serum Albumin, and 1.0 mM GDP fucose (GDP-Fuc) (Carbosynth) and the appropriate fucosytransferase. Then, mimetic 1 was added to each of the treatment groups in molar equivalents with respect to GDP-Fuc with each of the fucosytransferases. […]
(§3) Mimetic 1 (FIG. 1) was tested as an inhibitor of FT-mediated exofucosylation on these cells and the extent of fucosylation was monitored using antibodies that detect the creation of the relevant fucosylated epitopes, i.e., sLe^x or Le^x. […]

[2] = molecular target: T2, fucosyltransferase IX (FTIX) (Homo sapiens, UniProt Q9Y231); test: FTIX exofucosylation of mesenchymal stem cells (MSC), Le^x by flow cytometry; conditions: MSCs; same conditions as RPMI-8402 cells
T2 sequence (Q9Y231 1-359): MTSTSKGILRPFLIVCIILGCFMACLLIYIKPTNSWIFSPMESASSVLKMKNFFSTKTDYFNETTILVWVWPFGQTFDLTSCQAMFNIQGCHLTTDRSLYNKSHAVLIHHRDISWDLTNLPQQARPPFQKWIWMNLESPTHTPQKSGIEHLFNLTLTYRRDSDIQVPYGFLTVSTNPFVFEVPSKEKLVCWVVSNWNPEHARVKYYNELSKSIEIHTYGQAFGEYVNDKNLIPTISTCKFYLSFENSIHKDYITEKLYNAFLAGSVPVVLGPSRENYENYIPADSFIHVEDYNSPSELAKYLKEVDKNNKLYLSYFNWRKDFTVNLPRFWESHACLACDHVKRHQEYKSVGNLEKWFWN
Procedure: as §1, §2, §3

[3] = molecular target: T3, fucosyltransferase VII (FTVII) (Homo sapiens, UniProt Q11130); test: FTVII exofucosylation of RPMI-8402 cells, sLe^x by flow cytometry
T3 sequence (Q11130 37-342 limits assumed): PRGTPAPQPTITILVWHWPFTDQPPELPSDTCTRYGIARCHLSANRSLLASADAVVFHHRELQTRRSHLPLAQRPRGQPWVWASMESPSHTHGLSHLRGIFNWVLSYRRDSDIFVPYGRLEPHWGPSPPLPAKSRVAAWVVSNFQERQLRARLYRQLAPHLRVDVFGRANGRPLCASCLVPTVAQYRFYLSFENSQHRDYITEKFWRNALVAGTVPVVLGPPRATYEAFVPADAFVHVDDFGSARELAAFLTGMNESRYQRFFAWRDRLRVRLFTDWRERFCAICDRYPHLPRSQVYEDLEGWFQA
Procedure: as §1
Cells of the RPMI-8402 cell line and MSC cell line were treated with either 0.3 ug of fucosyltransferase VI (FTVI), 2.7 ug of fucosyltransferase VII (FTVII), 1.0 ug fucosyltransferase IX (FTIX) or buffer-only at 37° C. for 60 minutes. All reactions contained at 1×10^6 cells/30 ul in HBSS with 10 mM Hepes, 0.1% Human Serum Albumin, and 1.0 mM GDP fucose (GDP-Fuc) (Carbosynth) and the appropriate fucosytransferase. Then, mimetic 1 was added to each of the treatment groups in molar equivalents with respect to GDP-Fuc with each of the fucosytransferases. The treatment groups were as follows: 1:1 GDP-Fuc to mimetic 1 (i.e., 1.0 mM GDP-Fuc and 1.0 mM mimetic), 1:2 GDP-Fuc to mimetic 1 (i.e., 1.0 mM GDP-Fuc and 2.0 mM mimetic), or preincubated in presence of FT with a 2.0 mM solution of the mimetic 1 for 45 minutes followed by addition of a 1.0 mM solution of GDP-Fuc for 1 hour. Concentrations of the various FTs were utilized that would maximize the MFI to allow the detection of the efficacy of mimetic 1 to inhibit the various enzymes.
Exofucosylation is a technique whereby a pertinent FT together with GDP-Fuc is placed in a cell suspension to stereoselectively install fucose on pertinent acceptor cell surface glycan(s). For the case of α-1,3-FTs, this approach provides the ability to pinpoint the effect(s) of mimetic addition on creation of fucosylated glycans Le^x and sLe^x, while keeping the rest of the cell's biological functions and its viability intact. Specifically, this study focused on three α-1,3-FTs that can create sLe^x and Le^x determinants: FTVII, FTIX, and FTVI. To assess enzymatic activity, two cell types were utilized, the human lymphoblastic leukemia cell line RPMI-8402 and human mesenchymal stem cells (MSCs).
Mimetic 1 (FIG. 1) was tested as an inhibitor of FT-mediated exofucosylation on these cells and the extent of fucosylation was monitored using antibodies that detect the creation of the relevant fucosylated epitopes, i.e., sLe^x or Le^x. Cells were treated directly with reaction buffer containing the relevant FTs together with 1.0 mM GDP-Fuc and cells untreated with FTs (UT) were used as reference reaction negative control (FIGS. 2A, 2B, 2C, 3, 4A and 4B). […]
Moreover, a pre-incubation protocol was also analyzed, wherein the cell suspension was pre-treated with FTVII and a 2.0 mM solution of mimetic 1 followed by addition of 1.0 mM solution of GDP-Fuc (Pre).

inhibition of FTVI production of Le^x [1]: clearly inhibited
inhibition of FTVI production of sLe^x [1]: markedly diminished
inhibition of FTIX production of Le^x [2]: did not inhibit FTIX production of Le^x
concentration of highest inhibition against FTVII ([3]; titration of mimetic 1, 1.0 mM GDP-Fuc, RPMI-8402 cells, bell-shaped curve): 2.0 mM
Compound: CC1OC2Oc3ccc(CC(=O)O)cc3SC2C(O)C1O (stereo not shown) [mimetic 1]
inhibition of FTVII-driven sLe^x expression ([3]; RPMI-8402 cells, 1.0 mM GDP-Fuc with 1.0 mM or 2.0 mM mimetic 1): able to inhibit FTVII-driven sLe^x expression
extent of inhibition, FTVII compared with FTVI ([3]; at 2.0 mM mimetic 1, 1.0 mM GDP-Fuc): slightly higher extent of inhibition on FTVII over FTVI
inhibition of FTVII sLe^x production after pre-incubation ([3]; pre-incubation of FTVII with 2.0 mM mimetic 1 for 45 minutes, then 1.0 mM GDP-Fuc for 1 hour): significant inhibition of sLe^x production; also recorded: inhibited more completely
